In patent US20110172296A1, “MODULATION OF TRANSFORMING GROWTH FACTOR-BETA 1 EXPRESSION” (priority 2010, published 2011):
“And” between values parts separate entries of the source, which are not always exact repeats. Identical values can stand only once. e = 2'-O-(2-methoxyethyl) (MOE); d = 2'-deoxy (DNA)

What was measured:
[1] = test system: Col1α2 mRNA expression in rat skin; assay: Col1α2 mRNA expression in rat model of skin fibrosis and wounding, intradermal treatment (Example 9); format: in vivo
Excerpt: Scar and fibrotic tissues are mainly composed of collagen, especially collagen1α2 (Col1α2). Therefore, the expression of Col1α2 can be used as a marker for the severity of scarring, especially in skin. We have evaluated the ability of a TGF-beta1 ASO to suppress the expression of Col1α2 in rat skin subsequent to full-thickness skin wounding, an injury that typically leads to a 4-6 fold induction in Col1α2 expression.
On Day 1 of the study, a 0.8 centimeter biopsy punch was used to create full-thickness wounds on the back of anesthetized adult hairless rats. Two biopsies were performed on each rat's back; one in the lower left quadrant, and one in the upper right quadrant. The wounds were left open, but dressed with a sterile occlusive bandage, which were left in place for 24 hours.
Biopsy sites were treated intradermally with PBS (vehicle) or a 3 mg dose of a rat specific TGF-beta1 antisense oligonucleotide (Oligo ID 433849; SEQ ID NO. 166) on Days 1, 5, 9, and 13 post-biopsy. Animals were sacrificed on Day 14 post-biopsy. […]
A subset of the excised skin from each initial biopsy site was retained and prepared for Col1α2 mRNA expression (by RT-PCR). […] On day 15, animals were euthanized, a sample of skin from the center of the wound was obtained with a 0.5 cm biopsy punch, and Col1α2 mRNA expression determined.

human TGF-beta1 mRNA [2] = assay: Dose-dependent confirmation of antisense inhibition of human TGF-beta1 in HuVEC cells, electroporation (Example 6); format: cell-based
Protocol: The gapmers from Example 5 (see Table 5) were also tested at various doses in HuVEC cells using electroporation as the transfection reagent. Cells were plated at a density of 20,000 cells per well and transfected using electroporation with 0.15625 nM, 0.3125 nM, 0.625 nM, 1.25 nM, 2.5 nM, 5 nM, 10 nM, and 20 nM concentrations of antisense oligonucleotide for 4 hours, as specified in Table 6. After a recovery period of approximately 16 hours, RNA was isolated from the cells and TGF-beta1 mRNA levels were measured by quantitative real-time PCR. TGF-beta1 mRNA levels were adjusted according to total RNA content, as measured by RIBOGREEN®. Results are presented as percent inhibition of TGF-beta1, relative to untreated control cells.

BALB/c mice [3] = assay: Tolerability in BALB/c mice: plasma transaminases ALT and AST (Example 7); settings: for aspartate transaminase levels: plasma
Protocol: (§1) These gapmer oligonucleotides were designed to target human TGF-beta1 and have varying degrees of mismatch with murine TGF-beta1 sequence, as shown in Table 1. Oligo ID Nos. 413982 and 414040 have greater than 3 mismatches to the murine TGF-beta1 sequence. Oligo ID No. 414035 has 2 mismatches to murine TGF-beta1. Oligo ID No. 414036 has no mismatches to murine TGF-beta1.
(§2) BALB/c mice were injected with 25 mg/kg or 50 mg/kg of Oligo ID Nos. 413982, 414035, 414036, or 414040 twice a week for 4 weeks. A control group of mice was injected with phosphate buffered saline (PBS) twice a week for 4 weeks. Plasma transaminase levels were evaluated bi-weekly.
(§3) To evaluate the impact of TGF-beta1 antisense oligonucleotides on the hepatic function of mice described above, plasma concentrations of transaminases were measured using an automated clinical chemistry analyzer (Hitachi Olympus AU400e, Melville, N.Y.).

human TGF-beta1 mRNA [4] = assay: Dose-dependent antisense inhibition of human TGF-beta1 in HuVEC cells, Lipofectamine 2000, 0.3292-80 nM, comparison with oligos of U.S. Pat. No. 6,436,909 (Example 4); format: cell-based
Protocol: The dose-dependent antisense inhibition potential of these gapmers was compared with that of Oligo IDs 104992 and 1138498 from U.S. Pat. No. 6,436,909. Cells were plated at a density of 5,000 cells per well and transfected using Lipofectamine™ 2000 reagent with 0.3292 nM, 0.9877 nM, 2.963 nM, 8.8889 nM, 26.6667 nM, and 80 nM concentrations of antisense oligonucleotide for 4 hours, as specified in Table 4. After a recovery period of approximately 16 hours, RNA was isolated from the cells and TGF-beta1 mRNA levels were measured by quantitative real-time PCR. Human TGF-beta1 primer probe set RTS 2980 was used to measure mRNA levels. TGF-beta1 mRNA levels were adjusted according to total RNA content, as measured by RIBOGREEN®. Results are presented as percent inhibition of TGF-beta1, relative to untreated control cells. […] All the antisense oligonucleotides in Table 4 target human TGF-beta1 mRNA (SEQ ID NO: 1).

human TGF-beta1 mRNA [5] = assay: Antisense inhibition of human TGF-beta1 mRNA in HuVEC cells, single 10 nM dose, Lipofectamine 2000 (Example 2); format: cell-based
Summary of the method: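 HuVEC cells (5,000/well) transfected with 10 nM 2-13-5 MOE gapmer (phosphorothioate, 5-methylcytosine) via Lipofectamine 2000 for 4 h, then recovered ~24 h. mRNA measured by qRT-PCR, normalized to RIBOGREEN total RNA; percent inhibition versus untreated cells.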

BALB/c mice [6] = settings: mouse, in vivo
Protocol: as §1, §2, §3

human TGF-beta1 mRNA [7] = assay: Dose-dependent antisense inhibition of human TGF-beta1 in HuVEC cells, Lipofectamine 2000, 0.9375-30 nM (Example 3); format: cell-based; settings: Lipofectamine 2000
Protocol: Cells were plated at a density of 5,000 cells per well and transfected using Lipofectamine™ 2000 reagent with 0.9375 nM, 1.875 nM, 3.75 nM, 7.5 nM, 15 nM, and 30 nM concentrations of antisense oligonucleotide for 4 hours, as specified in Table 3. After a recovery period of approximately 16 hours, RNA was isolated from the cells and TGF-beta1 mRNA levels were measured by quantitative real-time PCR. Human TGF-beta1 primer probe set RTS 2980 (forward sequence CTCTCCGACCTGCCACAGA, SEQ ID NO: 160; reverse sequence […], SEQ ID NO: 53; probe sequence CCCTATTCAAGACCACCCACCTTCTGGTX, SEQ ID NO: 161) was used to measure mRNA levels. TGF-beta1 mRNA levels were adjusted according to total RNA content, as measured by RIBOGREEN®. Results are presented as percent inhibition of TGF-beta1, relative to untreated control cells.

human TGF-beta1 mRNA [8] = assay: Dose-dependent confirmation of antisense inhibition of human TGF-beta1 in HuVEC cells after large-scale synthesis, Lipofectamine 2000, 0.007-15 nM (Example 5); format: cell-based; settings: for percent inhibition of TGF-beta1: Lipofectamine 2000
Protocol: Cells were plated at a density of 5,000 cells per well and transfected using Lipofectamine™ 2000 reagent with 0.007 nM, 0.021 nM, 0.062 nM, 0.185 nM, 0.556 nM, 1.667 nM, 5 nM, and 15 nM concentrations of antisense oligonucleotide for 4 hours, as specified in Table 5. After a recovery period of approximately 16 hours, RNA was isolated from the cells and TGF-beta1 mRNA levels were measured by quantitative real-time PCR. Human TGF-beta1 primer probe set RTS 2980 was used to measure mRNA levels. TGF-beta1 mRNA levels were adjusted according to total RNA content, as measured by RIBOGREEN®. Results are presented as percent inhibition of TGF-beta1, relative to untreated control cells.

433849 (antisense GTCCTTAAATACAGCCCCGG; listed as DNA, chemistry not given here) [compound 433849]
expression of Col1α2 in rat skin ([1]; 3 mg intradermally on Days 1, 5, 9, 13 post-biopsy, day 14 after skin wounding): significantly reduced
% Col1α2 mRNA compared to the unwounded control ([1]; hairless rats, full-thickness skin wound, 3 mg intradermal on Days 1, 5, 9, 13, day 14 after skin wounding): 83%

414035 (antisense GTCCTTAAATACAGCCCCCA; sugars from the 5' end e2 d13 e5, backbone and methylation of C not given here) [compound 414035]
percent inhibition of TGF-beta1 mRNA relative to untreated control cells (human TGF-beta1 mRNA [2]; 0.15625 nM oligonucleotide): 17%
percent inhibition of TGF-beta1 mRNA relative to untreated control cells (human TGF-beta1 mRNA [2]; 0.3125 nM oligonucleotide): 49%
percent inhibition of TGF-beta1 mRNA relative to untreated control cells (human TGF-beta1 mRNA [2]; 0.625 nM oligonucleotide): 63%
percent inhibition of TGF-beta1 mRNA relative to untreated control cells (human TGF-beta1 mRNA [2]; 1.25 nM oligonucleotide): 77%
percent inhibition of TGF-beta1 mRNA relative to untreated control cells (human TGF-beta1 mRNA [2]; 2.5 nM oligonucleotide): 89%
percent inhibition of TGF-beta1 mRNA relative to untreated control cells (human TGF-beta1 mRNA [2]; 5.00 nM oligonucleotide): 94%
percent inhibition of TGF-beta1 mRNA relative to untreated control cells (human TGF-beta1 mRNA [2]; 10.00 nM oligonucleotide): 94%
percent inhibition of TGF-beta1 mRNA relative to untreated control cells (human TGF-beta1 mRNA [2]; 20 nM oligonucleotide): 94%
alanine transaminase levels (BALB/c mice [3]; 25 mg/kg twice a week, Week 2): 56 IU/L
alanine transaminase levels (BALB/c mice [3]; 25 mg/kg twice a week, Week 4): 45 IU/L
aspartate transaminase levels (BALB/c mice [3]; 25 mg/kg twice a week, Week 2): 82 IU/L
aspartate transaminase levels (BALB/c mice [3]; 25 mg/kg twice a week, Week 4): 116 IU/L
alanine transaminase levels (BALB/c mice [3]; 50 mg/kg twice a week, Week 2): 66 IU/L
alanine transaminase levels (BALB/c mice [3]; 50 mg/kg twice a week, Week 4): 67 IU/L
aspartate transaminase levels (BALB/c mice [3]; 50 mg/kg twice a week, Week 2): 123 IU/L
aspartate transaminase levels (BALB/c mice [3]; 50 mg/kg twice a week, Week 4): 155 IU/L
increase in ALT/AST (BALB/c mice [3]; 25 or 50 mg/kg twice a week for four weeks): < 3 fold
percent inhibition of TGF-beta1 (human TGF-beta1 mRNA [4]; 0.3292 nM): 74%
percent inhibition of TGF-beta1 (human TGF-beta1 mRNA [4]; 0.9877 nM): 84%
percent inhibition of TGF-beta1 (human TGF-beta1 mRNA [4]; 2.963 nM): 92%
percent inhibition of TGF-beta1 (human TGF-beta1 mRNA [4]; 8.8889 nM): 94%
percent inhibition of TGF-beta1 (human TGF-beta1 mRNA [4]; 26.6667 nM): 93%
percent inhibition of TGF-beta1 (human TGF-beta1 mRNA [4]; 80.0 nM): 93%
% inhibition (human TGF-beta1 mRNA [5]; 10 nM oligonucleotide, HuVEC, relative to untreated control cells, gapmers targeted to SEQ ID NO: 1): 89%
inhibition of a TGF-beta1 mRNA (human TGF-beta1 mRNA [5]; threshold lists of Oligo IDs, 10 nM): 60% and 65% and 70% and 75% and 80% and 85%
tolerability compared to Oligo ID 105204 (BALB/c mice [6]): improved tolerability
percent inhibition of TGF-beta1 (human TGF-beta1 mRNA [7]; 0.9375 nM): 64%
percent inhibition of TGF-beta1 (human TGF-beta1 mRNA [7]; 1.875 nM): 75%
percent inhibition of TGF-beta1 (human TGF-beta1 mRNA [7]; 3.75 nM): 88%
percent inhibition of TGF-beta1 (human TGF-beta1 mRNA [7]; 7.5 nM): 94%
percent inhibition of TGF-beta1 (human TGF-beta1 mRNA [7]; 15 nM): 95%
percent inhibition of TGF-beta1 (human TGF-beta1 mRNA [7]; 30 nM): 94%
percent inhibition of TGF-beta1 (human TGF-beta1 mRNA [8]; 0.007 nM): 9%
percent inhibition of TGF-beta1 (human TGF-beta1 mRNA [8]; 0.021 nM): 26%
percent inhibition of TGF-beta1 (human TGF-beta1 mRNA [8]; 0.062 nM): 45%
percent inhibition of TGF-beta1 (human TGF-beta1 mRNA [8]; 0.185 nM): 59%
percent inhibition of TGF-beta1 (human TGF-beta1 mRNA [8]; 0.556 nM): 76%
percent inhibition of TGF-beta1 (human TGF-beta1 mRNA [8]; 1.667 nM): 84%
percent inhibition of TGF-beta1 (human TGF-beta1 mRNA [8]; 5 nM): 90%
percent inhibition of TGF-beta1 (human TGF-beta1 mRNA [8]; 15 nM): 91%
IC50 (human TGF-beta1 mRNA [8]; Lipofectamine 2000, Example 5): 0.13 nM
